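Five concentrations, 48 hours, 96-well plates. The concentration for 50% growth inhibition is given as GI50. TGI denotes the concentration required for complete inhibition of growth.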
What was measured:
Assay in all cases: inhibition of tumour cell growth, NCI panel, 48 h
SNB-19 CNS = system: SNB-19 CNS
HL-60(TB) leukemia = system: HL-60(TB) leukemia
NCI-H226 lung = system: NCI-H226 lung
UACC-62 melanoma = system: UACC-62 melanoma
BT-549 breast = system: BT-549 breast
HCT-15 colon = system: HCT-15 colon
ACHN renal = system: ACHN renal
SNB-75 CNS = system: SNB-75 CNS
SF-539 CNS = system: SF-539 CNS
OVCAR-4 ovarian = system: OVCAR-4 ovarian

Structure (SMILES) | GI50 (SNB-19 CNS) | TGI (SNB-19 CNS) | GI50 (HL-60(TB) leukemia) | TGI (HL-60(TB) leukemia) | GI50 (NCI-H226 lung) | TGI (NCI-H226 lung) | GI50 (UACC-62 melanoma) | TGI (UACC-62 melanoma) | GI50 (BT-549 breast) | TGI (BT-549 breast) | GI50 (HCT-15 colon) | TGI (HCT-15 colon) | GI50 (ACHN renal) | TGI (ACHN renal) | TGI (SNB-75 CNS) | TGI (SF-539 CNS) | TGI (OVCAR-4 ovarian) | GI50 (SF-539 CNS) | GI50 (SNB-75 CNS) | GI50 (OVCAR-4 ovarian)
O=C(O)c1ccc(NCn2nc(-c3ccccc3O)oc2=S)cc1O | > 100 µM | > 100 µM | > 100 µM | > 100 µM | 21 µM | > 100 µM | 39.8 µM | > 100 µM | > 100 µM | > 100 µM | 32 µM | 92.6 µM | 31.6 µM | 99.1 µM |  |  |  |  |  | 
S=C1NC(c2ccccc2)=NC(Cc2ccccc2)(c2ccccc2)N1c1ccccc1 (stereo unspecified) |  | > 100 µM |  | > 100 µM |  | > 100 µM |  | > 100 µM |  |  |  | > 100 µM |  | > 100 µM | 57.1 µM | > 100 µM | > 100 µM |  |  | 
Cc1cn2c(/C=N/NC3=NCCN3)c(-c3ccc(Cl)c([N+](=O)[O-])c3)nc2s1 | 1.48 µM | > 50 µM |  |  |  |  | 0.933 µM | 1.98 µM | 0.892 µM | 1.77 µM |  |  |  |  |  | 1.85 µM |  | 0.962 µM |  | 
COC1OC(CO)C(O)C(NC(=O)N(C)N=O)C1O (stereo unspecified) |  | > 100 µM |  | > 100 µM |  | > 100 µM |  |  |  |  |  | > 100 µM |  | > 100 µM | > 100 µM | > 100 µM | > 100 µM |  |  | 
Fc1ccc(-c2nn3c(COc4ccccc4Cl)nnc3s2)cc1Oc1ccccc1 | 23.4 µM | 57.6 µM |  |  | 32.7 µM | > 100 µM | 17.8 µM | 39 µM | 41.1 µM | > 100 µM | 38.7 µM | > 100 µM | 25 µM | 65.3 µM | 93.7 µM | 92.1 µM | > 100 µM | 32.2 µM | 30.7 µM | 72.2 µM
CC(=O)NS(=O)(=O)c1ccc(-n2nc(-c3ccccc3)cc2-c2cc(O)ccc2O)cc1 | > 100 µM | > 100 µM | 61.8 µM | > 100 µM | > 100 µM | > 100 µM | 62 µM | > 100 µM | > 100 µM | > 100 µM | > 100 µM | > 100 µM | > 100 µM | > 100 µM |  |  |  |  |  | 
OCC(O)COc1ccc(F)cc1 (stereo unspecified) |  | > 100 µM |  | > 100 µM |  | > 100 µM |  | > 100 µM |  |  |  | > 100 µM |  | > 100 µM | > 100 µM | > 100 µM | > 100 µM |  |  | 
O=C(Cc1c(C(=O)Nc2ccccc2)sc(C(=O)Nc2ccccc2)c1CC(=O)Nc1ccccc1)Nc1ccccc1 |  | > 100 µM |  | > 100 µM |  | > 100 µM |  | > 100 µM |  |  |  |  |  | > 100 µM | > 100 µM | > 100 µM | > 100 µM |  |  | 
CC(=O)OC1C(COC(N)=O)OC(n2c(-c3ccc(C)cc3)cc(-c3ccccc3)c(C#N)c2=O)C(OC(C)=O)C1OC(C)=O (stereo unspecified) |  | > 100 µM |  |  |  | > 100 µM |  | > 100 µM |  |  |  | > 100 µM |  | > 100 µM | > 100 µM | > 100 µM | > 100 µM |  |  | 
O=C1C2=C(c3ccccc31)C(c1ccccc1Cl)NC(=S)N2 (stereo unspecified) |  | > 100 µM |  | > 100 µM |  | > 100 µM |  | > 100 µM |  |  |  | > 100 µM |  | > 100 µM | > 100 µM | > 100 µM | > 100 µM |  |  | 
C=CCC1=C2CCCCC2CCC1=O (stereo unspecified) |  | > 100 µM |  | > 100 µM |  |  |  | > 100 µM |  |  |  | > 100 µM |  | > 100 µM | > 100 µM | > 100 µM | > 100 µM |  |  | 
O=C(O)COc1ccc2c3c1C(=O)CCC3CO2 (stereo unspecified) |  | > 100 µM |  | > 100 µM |  |  |  | > 100 µM |  |  |  | > 100 µM |  | > 100 µM |  | > 100 µM | > 100 µM |  |  | 
CCOC(=O)c1sc(Nc2cc(Cl)ccc2Cl)nc1C |  | > 100 µM |  | > 100 µM |  | > 100 µM |  |  |  |  |  | > 100 µM |  | > 100 µM | > 100 µM | > 100 µM | > 100 µM |  |  | 
CCCC(c1cc(C(C)(C)C)c(O)cc1C)c1cc(C(C)(C)C)c(O)cc1C |  | 16.9 µM |  | 4.94 µM |  | 4.53 µM |  | 4.95 µM |  | 22.7 µM |  | 11.4 µM |  | 7.4 µM |  | 4.7 µM | 19.4 µM |  |  | 
O=P1(O)c2ccccc2CSCc2ccccc21 |  | > 100 µM |  | > 100 µM |  | > 100 µM |  | > 100 µM |  | > 100 µM |  | > 100 µM |  | > 100 µM |  | > 100 µM | > 100 µM |  |  | 
COC(=O)C(=O)C(C(=O)C(=O)Nc1ccccc1C(N)=O)c1nc2ccc([N+](=O)[O-])cc2[nH]c1=O (stereo unspecified) |  | > 100 µM |  | > 100 µM |  | > 100 µM |  | > 100 µM |  |  |  | > 100 µM |  | > 100 µM | > 100 µM | > 100 µM | > 100 µM |  |  | 
CCOC(=O)Cc1csc(Nc2nc(O)c(C3=c4ccccc4=NC3=O)s2)n1 | 38.4 µM | > 100 µM |  |  | 21.3 µM | 42.8 µM | 15.7 µM | 34.6 µM | 92.3 µM | > 100 µM | 27.4 µM | > 100 µM | 23 µM | 47.3 µM |  | > 100 µM | > 100 µM | 60 µM |  | 42.3 µM
CCCCN(CCCC)C(=O)C(=O)C(C(=O)C(=O)OC)c1nc2ccccc2o1 (stereo unspecified) |  | > 100 µM |  | > 100 µM |  | > 100 µM |  |  |  |  |  | > 100 µM |  | > 100 µM | > 100 µM | > 100 µM | > 100 µM |  |  | 
COc1c(O)cc2c(c1CC=C(C)C)OC(=O)c1c(cc(O)c(CC=C(C)C)c1O)O2 | 4.5 µM | 8.51 µM | 5.76 µM | 15.4 µM | 4.51 µM | 8.86 µM | 3.74 µM | 7.48 µM |  |  | 3.95 µM | 8.94 µM | 3.93 µM | 7.49 µM | 6.45 µM | 8.52 µM | 7.61 µM | 4.46 µM | 3.09 µM | 4.04 µM
Cn1cnc([N+](=O)[O-])c1Sc1nccn1-c1ccccc1 |  | > 100 µM |  |  |  | > 100 µM |  | > 100 µM |  |  |  |  |  | > 100 µM | > 100 µM | > 100 µM | > 100 µM |  |  | 
COC(=O)c1oc([N+](=O)[O-])c(-c2ccccc2)c1-c1ccccc1 |  | > 100 µM |  |  |  | > 100 µM |  | > 100 µM |  |  |  |  |  | > 100 µM | > 100 µM | > 100 µM | > 100 µM |  |  | 

From PubChem BioAssay (NCI)
